Measured values reported in CN110668932A, “一种共晶体及制备方法、包含共晶体的药物组合物及用途” (Individual, priority 2019, dated 2020).

Columns and labels:
[1] = system: human gastric cancer SGC-7901 cells, human liver cancer Bet-7402 cells, human lung cancer H460 cells (人胃癌SGC-7901细胞、人肝癌Bet-7402细胞、人肺癌H460细胞); test: In vivo antitumour experiment in mice (Experimental Example 1); set-up: species or system mouse; conditions: 2 mg/kg active ingredient, oral, twice daily, 15-20 days; for tumor size / weight vs negative control group: compared with negative control group; for tumor inhibition effect: mice
[2] = system: metabolic syndrome model rats (代谢综合征模型大鼠); test: Effect in metabolic syndrome model rats (Experimental Example 4); type: in vivo, rat; conditions: 10 mL/kg, once daily, gavage, 8 weeks; for serum LDL-C level vs control group / serum TG level vs control group: compared with control group (standard feed); for serum LDL-C level vs model group / serum TG level vs model group: compared with model group
[3] = Liver injury side effect experiment in mice, ALT and AST (Experimental Example 5); type: in vivo, mouse; conditions: 0.012 g/kg, gavage, 2 weeks, Kunming mice; for ALT / ASL: serum, compared with normal control group

Row | SMILES | tumor size / weight vs negative control group [1] | tumor inhibition effect [1] | serum LDL-C level vs control group [2] | serum TG level vs control group [2] | serum LDL-C level vs model group [2] | serum TG level vs model group [2] | liver injury effect [3] | ALT [3] | ASL [3]
1 | COc1cc(CCC(=O)CC(=O)CCc2ccc(O)c(OC)c2)ccc1O [SHCUR, 四氢姜黄素] | 肿瘤明显减小,低于阴性对照组 | 具有较好的抑制肿瘤的效果 | 较高 | 较高 | 较低 | 较低 | 没有明显肝损伤作用 | 与正常对照组相近 | 与正常对照组相近
2 | COc1cc(CCC(=O)CC(=O)CCc2ccc(O)cc2)ccc1O [SHDMCUR, 四氢去甲氧基姜黄素] | 肿瘤明显减小,低于阴性对照组 | 具有较好的抑制肿瘤的效果 | 较高 | 较高 | 较低 | 较低 | 没有明显肝损伤作用 | 与正常对照组相近 | 与正常对照组相近
3 | O=C(CCc1ccc(O)cc1)CC(=O)CCc1ccc(O)cc1 [四氢双去甲氧基姜黄素] | 肿瘤明显减小,低于阴性对照组 | 具有较好的抑制肿瘤的效果 | 较高 | 较高 | 较低 | 较低 | 没有明显肝损伤作用 | 与正常对照组相近 | 与正常对照组相近
4 | CC(=O)O[C@H]1C(=O)[C@@]2(C)[C@H]([C@H](OC(=O)c3ccccc3)[C@]3(O)C[C@H](OC(=O)[C@H](O)[C@@H](NC(=O)c4ccccc4)c4ccccc4)C(C)=C1C3(C)C)[C@]1(OC(C)=O)CO[C@@H]1C[C@@H]2O [紫杉醇] | 肿瘤明显减小,低于阴性对照组 | 具有较好的抑制肿瘤的效果 |  |  |  |  |  |  | 
